# Experimental data published in US6608179B1, “Antibodies, that bind to HIV-2 transmembrane glycoprotein homodimer (gp 80)” (Institut Pasteur, priority 1988, dated 2003).
# Experiments:
# [1] = target: T1, binding of mAb 1H8 to gp80 (Human immunodeficiency virus type 2 subtype A, UniProt P04577); test: Peptide blocking of antibody signals in Western blot of HIV-2 virus pellet; conditions: 1 μg/ml of peptide p39′
# T1 construct: cleaved by the cellular protease to give the extracellular glycoprotein gp125 and the transmembrane glycoprotein dimer gp80; endogenous in cells; host or cells: virus pellet from culture medium of HIV-2 infected CEM cells
# T1 sequence (P04577 512-858 limits assumed): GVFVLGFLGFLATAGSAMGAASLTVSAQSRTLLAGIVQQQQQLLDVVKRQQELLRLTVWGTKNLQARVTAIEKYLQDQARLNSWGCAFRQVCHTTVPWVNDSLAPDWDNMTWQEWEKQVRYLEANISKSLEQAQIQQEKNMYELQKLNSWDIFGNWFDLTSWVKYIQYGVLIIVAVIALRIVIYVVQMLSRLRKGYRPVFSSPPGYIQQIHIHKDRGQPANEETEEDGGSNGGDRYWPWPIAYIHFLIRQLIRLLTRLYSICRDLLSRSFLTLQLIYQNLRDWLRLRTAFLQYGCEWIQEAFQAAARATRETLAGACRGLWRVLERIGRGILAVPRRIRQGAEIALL
# Experimental: Extracts from the HIV-2 virus pellets were analyzed by Western blot assay using mAb 1H8 (section mAb) or anti-gp300 polyclonal antibodies (section S). Incubation with each antibody was carried out in the absence (lanes −) or presence (lanes +) of 10 μg of peptide p39′. The results of the autoradiography are shown.
# To show the specificity of mAb 1H8 reactivity with gp80, a Western blot assay using extracts from HIV-2 virus pellet was carried out. After the transfer of proteins, nitrocellulose sheets were incubated with mAb 1H8 or anti-gp300 polyclonal antibodies in the absence or presence of 1 μg/ml of peptide p39′ (FIG. 5). […] In addition, a signal for gp36 was observed, but only after a prolonged exposure of the autoradiogram. […] These observations confirm that the reactivity of mAb 1H8 should be with the 26 amino acid residue corresponding to the amino acids 579 to 604 in the transmembrane glycoprotein of HIV-2. Consequently, a sequence corresponding to that of peptide p39′ should be present in gp80. The reactivity of anti-gp300 antibodies was not modified by peptide p39′. Therefore, these antibodies should interact with other epitopes than that corresponding to peptide 39′. […]
# HIV-2 infected cells [2] = conditions: in the presence of monensin; previous study (Rey et al., 1989); cited from earlier work
# HIV-2 infected cells [3] = test: Incorporation of labeled sugars into HIV-2 glycoproteins in infected cells; assay type: cell-based; conditions: [3H] glucosamine, fucose, mannose; data not shown
# Source text: Extracts from HIV-2 infected cells metabolically labeled with [^3H] glucosamine and [^3H] fucose were immunoprecipitated using mAb 1H8 and anti-gp300 polyclonal antibodies. In accord with the previous results (FIGS. 3-6), anti-gp300 antibodies immunoprecipitated sugar labeled gp300, gp140, gp125, and gp80, whereas mAb 1H8 immunoprecipitated gp300, gp140, and gp80. All these proteins incorporated [^3H] glucosamine, whereas incorporation of [^3H] fucose mainly occurred in gp125 and gp80 (FIG. 7a). In these experiments, the labeling of gp36 with [^3H] glucosamine was observed faintly after a prolonged exposure of the autoradiogram (data not shown; similar to FIG. 1, Rey et al., 1989). The glycoprotein gp80 also can incorporate [^3H] mannose as is the case for gp300, gp140, and gp125 (data not shown).
# For metabolic labeling of proteins, infected cells were incubated for 16 hours at 37° C. in MEM culture without L-methionine and serum, but supplemented with 200 μCi/ml [^35S] methionine. For metabolic labeling of glycoproteins, infected cells were incubated for 16 hours at 37° C. in MEM culture medium lacking serum and glucose but supplemented with 200 μCi/ml ^3H-Fucose or 200 μCi/ml ^3H-glucosamine.
# HIV-2 infected CEM cells = test: Effect of glucosidase inhibitor on production of viral proteins in HIV-2 infected cells; assay type: cell-based; conditions: castanospermine 1 mM, 16 hr [35S] methionine labeling, culture supernatants
# Experimental: To confirm that gp80 was produced during the processing of envelope precursor, HIV-2 infected cells were labeled with [^35S] methionine in the absence or presence of the glucosidase inhibitor, castanospermine (Saul et al., 1983). Culture supernatants were then assayed by immunoprecipitation using an HIV-2 positive patient serum which recognizes several viral proteins.
compound,measurement,setting,value
VTAIEKYLQDQARLNSWGCAFRQVCH [peptide p39′],effect of peptide on Western blot signals obtained with mAb 1H8,[1],completely abolished
same,effect of peptide on reactivity of anti-gp300 antibodies,[1],not modified
CC[C@@]1([C@@H]2O[C@@H]([C@H]3O[C@@](O)(CO)[C@H](C)C[C@@H]3C)C[C@@H]2C)CC[C@H]([C@]2(C)CC[C@]3(C[C@H](O)[C@@H](C)[C@@H]([C@@H](C)[C@@H](OC)[C@H](C)C(=O)O)O3)O2)O1 [monensin],135-kDa protein (gp135) in HIV-2 infected cells,HIV-2 infected cells [2],accumulated
tunicamycin,incorporation of labeled sugars in gp80 and other glycoproteins,HIV-2 infected cells [3],completely blocked
O[C@H]1[C@H](O)[C@@H](O)CN2CC[C@H](O)[C@H]12 [castanospermine],production of gp80 and gp125,HIV-2 infected CEM cells,markedly reduced
same,production of the major core protein (p26),HIV-2 infected CEM cells,not significantly affected
